A short description of data set [1]: Structural integrity of triester phosphoroalaninates by LC MS over 22-29 days. The data set is classed as physicochemical. As for the experimental part: Instability of Triester Phosphoroalaninates
Intermediate compounds I-19 d2 and I-25 synthesised above are triesterphosphoro-alaninates resembling the prior art compound described in Yan et al, J Med Chem 2005 48 91-99:
The structural integrity of these model compounds was assessed by LC MS over a 22-29 day period, as follows: […]

Data set [2] deals with MV4-11 cells, human B-myelomonocytic leukemia. Put plainly: Leukemia cell line activity assay (Cell Counting Kit-8, 5 days), MV4-11. For orientation: Tetrazolium assays rely on reduction of a dye to a coloured formazan, in cell work by metabolically active cells.
Method: (§1) Compounds of the invention were evaluated for activity against the leukemia cell lines THP-1, EOL-1 and MV4-11, using the following assay:
(§2) Test compounds were made up to 10 mM stock solution in DMSO
(§3) Leukemia cells (THP-1, EOL-1 and MV4-11) were grown in a cell culture flask 75 cm^2 with approximately 100 ml complete cell medium. The cells were counted using a Scepter-hand held automated cell counter, using 60 μm sensors (Millipore) and suspended in complete cell medium to 2×10^5 cells. 100 μl of the cell suspension were seeded to all wells (2×10^4 cells/well).
(§4) The compounds were tested in twelve concentrations, 10-fold serial dilutions, 50 μM-5×10^−10 μM.
(§5) 100 μl from a compound dilution plate were transferred to the cell assay plate=200 μl/well total volume and incubated for 5 days, at 37° C., 5% CO2 incubator.
(§6) After 5 days, 10l of KIT-8 was added and the culture was incubated for 3-4 hours, at 37° C., 5% CO2 incubator.
(§7) Plate were read in the spectrophotometer at wavelength 450 nm with a reference filter of 620 nm.
(§8) CC50 values are calculated by plotting the degree of inhibition (compared to the vehicle ctrl) against the logarithm of the compound concentration. Result values in the dilution series are fitted to a 4-parameter sigmoidal dose-response curve described by the expression: F(x)=D+(A−D)/(1+(x/C)^B) where: • A=Minimum • B=Slope. • C=Inflection point. The inflection point is defined as the point on the curve where the curvature changes direction or signs. • D=Maximum • F=fraction inhibition
In data set [3] the test system is THP-1 (human acute monocytic leukemia). Nature of the data set: Leukemia cell line activity assay (Cell Counting Kit-8, 5 days), THP-1.
Method: as §1, §2, §3, §4, §5, §6, §7, §8
Data set [4] has as its system EOL-1 (human). Put plainly: Leukemia cell line activity assay (Cell Counting Kit-8, 5 days), EOL-1. The settings on record: read-out: EOL.1 CC50.
Method: as §1, §2, §3, §4, §5, §6, §7, §8

Where two headings read alike, the source gives them in different places.

For `CCC[C@H](C)OC(=O)[C@H](C)N[P@](=O)(OC[C@]1(CO)C/C1=C/n1cnc2c(=O)[nH]c(N)nc21)Oc1ccc(Br)cc1` (single isomer, unassigned) [Intermediate I-19 d2], the LCMS purity in data set [1] (Day 0) is listed as 96.86%; in data set [1] (Day 5) it was 94.32%; in data set [1] (Day 14) it was 88.76%; in data set [1] (Day 22), 73.76%.
Turning to `CCC(CC)COC(=O)[C@H](CC(C)C)N[P@](=O)(OCC1(COC(=O)C(C)C)C/C1=C/n1ccc(N)nc1=O)Oc1ccccc1` (stereo partly drawn) [Example 34-2, 2-ethylbutyl((S)-(((Z)-2-((4-amino-2-oxopyrimidin-1(2H)-yl)methylene)-1-((isobutyryloxy)methyl)cyclopropyl)methoxy)(phenoxy)phosphoryl)-L-leucinate], the cytotoxic concentration (CC50) – broadly, the concentration at which the toxic effect on the cells reaches its halfway point – came out at 440 nM in data set [2] (read-out: MV4-11 CC50, MV4-11 cells, 5 days incubation); 340 nM in data set [3] (read-out: THP-1 CC50, THP-1 cells, 5 days incubation); 170 nM in data set [4] (EOL-1 cells, 5 days incubation).
With `CCCC(CCC)COC(=O)[C@H](C)N[P@](=O)(OCC1(COC(=O)C(C)(C)C)C/C1=C/n1cnc2c(=O)[nH]c(N)nc21)Oc1ccccc1` (stereo partly drawn) [Example 38, ((Z)-2-((2-amino-6-oxo-1,6-dihydro-9H-purin-9-yl)methylene)-1-((((S)-(((S)-1-oxo-1-((2-propylpentyl)oxy)propan-2-yl)amino)(phenoxy)phosphoryl)ox)methyl)cyclopropyl)methyl pivalate], the CC50 in data set [2] (Homo sapiens, MV4-11, 120 h, read-out: MV4-11 CC50, MV4-11 cells, 5 days incubation) was found to be 310 nM; in data set [3] (Homo sapiens, THP-1, 120 h, read-out: THP-1 CC50, THP-1 cells, 5 days incubation), 190 nM; in data set [4] (Homo sapiens, EOL1, 120 h) it was 210 nM.
On to `CC(C)OC(=O)[C@H](C)N[P@](=O)(OC[C@@]1(CO)C/C1=C/n1cnc2c(=O)[nH]c(N)nc21)Oc1ccc(C2(C)CC2)cc1` [Intermediate I-25, (S)-Isopropyl 2-(((S)-(((S,Z)-2-((2-amino-6-oxo-1H-purin-9(6H)-yl)methylene)-1-(hydroxymethyl)cyclopropyl)methoxy)(4-(1-methylcyclopropyl)phenoxy)phosphoryl)amino)propanoate], for which the LCMS purity in data set [1] (Day 0) is 95.56%; in data set [1] (Day 5), 88.14%; in data set [1] (Day 14), 82.67%; in data set [1] (Day 22) it was 77.76%; in data set [1] (Day 29), 72.84%.

The record behind these values is patent US12221459B2, “Cancer treatment with (2,2-bishydroxymethyl) methylenecyclopropane nucleotides” (MEDIVIR AB, priority 2018, dated 2025).
